Data published in patent US20150204846A1, “PHOSPHATIDYLINOSITOL-3-KINASE C2 BETA MODULATORS AND METHODS OF USE THEREOF” (NEW YORK UNIVERSITY, priority 2012, published 2015).
Entries after “also recorded” stand apart in the source; their conditions may differ.

System: KCa3.1
Assay: Whole cell patch clamp of FcεR1 stimulated KCa3.1 channel activity in BMMCs
Format: cell-based, mouse
Details: for rescue of FcεR1 stimulated KCa3.1 channel activity: TRIM27+/+ BMMC transfected with siRNA to PI3KC2β, phosphoinositide added to the pipette solution (PI3P 100 nM)
Experimental: Whole cell patch clamping was performed on TRIM27^+/+ and TRIM27^−/− BMMCs that were first sensitized overnight with anti-DNP IgE and then stimulated with DNP-HSA using conditions previously described (5). Briefly, the standard pipette solution contained 140 mM KCl, 2 mM MgCl2, 10 mM Hepes, 2 mM Na^+-ATP and 0.1 mM GTP, pH 7.3. The standard external solution contained 140 mM NaCl, 5 mM KCl, 2 mM CaCl2, 1 mM MgCl2 and 10 mM Hepes, pH 7.3. Whole-cell currents were recorded using an Axoclamp 200 B amplifier (Axon Instruments, Foster City, Calif., USA), and currents were evoked by applying voltage commands to a range of potentials in 10 mV steps from a holding potential of 20 mV. For measuring the membrane potential, ruptured patch was used in current clamp mode as described in (34).
To verify that PI3KC2β mediated activation of KCa3.1 via the generation of PI3P, PI3P (100 nM) was added into the pipette solution during patch clamping in BMMCs in which PI3KC2β was knocked down using siRNA (32). PI(3)P diC16 [C41H45Na3O16P2 (C6)] was purchased from Echelon Biosciences and used according to specifications at a concentration of 100 nM in the pipette solution.

Molecule	rescue of FcεR1 stimulated KCa3.1 channel activity	rescue of KCa3.1 channel activity (TRIM27-/- BMMC transfected with siRNA to PI3KC2β, PI3P added to the pipette solution)	rescue of FcεR1 stimulated KCa3.1 channel activity (listed as PI(4)P)
CCCCCCCCCCCCCCCC(=O)OC[C@H](COP(=O)(O)O[C@@H]1[C@H](O)[C@H](OP(=O)(O)O)[C@@H](O)[C@H](O)[C@H]1O)OC(=O)CCCCCCCCCCCCCCC [PI3P, phosphatidylinositol 3 phosphate]	restored	rescue	
PI4P	failed to rescue		failure
PI(3,4,5)P3	failed to rescue; also recorded: failure		
